Data: patent US10954269B2, “Anti-inflammatory tripeptides” (Dr. August Wolff Gmbh & Co. KG Arzneimittel, priority 2013, dated 2021)
[ ]: non-standard residue; d: D form. Aib = CC(C)(N)C(=O)O

How the values were obtained:
[1] = system: human keratinocytes (HaCaT); assay: Gene expression of pro-inflammatory cytokines (RT-qPCR) in human keratinocytes (HaCaT); format: cell-based; details: HaCaT cells; PMA/Ionomycin; 10^−7 M, 10^−9 M and 10^−11 M
Text: (§1) Cells were activated with PMA/Ionomycin and treated with PBS, α-MSH, K(D)PT and Examples 3, 8 and 9, respectively, at a concentration of 10^−9 M. Values are normalized to β-actin and are shown relative to the gene expression in PBS-stimulated cells.
(§2) Primary T-cells were isolated from peripheral blood from healthy volunteers and from secondary lymphatic organs from naïve C57BL/6 mice, respectively. The cells were stimulated with phorbol-12-myristate-13-acetate (PMA)/Ionomycin and interferon-gamma (IFN-γ), respectively, for 48 h to activate the cells. The activated cells release pro-inflammatory cytokines. In parallel a human (HaCaT) keratinocyte cell line was activated with PMA/Ionomycin and IFN-γ, respectively, too. […] At the same time release of anti-inflammatory IL-10 was inhibited. Two days after addition of PMA/Ionomycin and IFN-γ, respectively, the induction of IL-1 secretion was determined in the supernatant for proving that the cells are activated. […] The anti-inflammatory properties of the tripeptides were determined 48 h and 72 h following stimulation. A 13-plex-system based FACS analysis was used for showing the reduced secretion of pro-inflammatory cytokines in the supernatant. Data for IL-1, IL-2, IL-6, IL-12p70 IL-17, IFN-γ and TNF-α are considered to be most relevant. Thus, analysis of the anti-inflammatory properties of the tripeptides is preferably based on the results obtained for these analytes. […] Using this method the gene expression of pro-inflammatory markers like IL-6, IL-17, IFN-γ and TNF-α was determined.
(§3) In a third experiment murine and human T cells and HaCaT cells were stimulated with PMA/Ionomycin and treated with Examples 14, 15, 16 and 17 at 10^−7 M, 10^−9 M and 10^−11 M. Cytokine concentrations (IFN-γ, IL-17 and IL-10 for T cells and IFN-γ for HaCat) were assessed in the supernatants using the Luminex technology. Expression of genes coding for Il-1β, IL-6 and TNF-α was determined. […] Moreover, concentrations of pro-inflammatory cytokines IFN-γ and IL-17 was reduced in the supernatants whereas the concentration of anti-inflammatory cytokine IL-10 was increased.

primary human T-cells = assay: Cytokine secretion on protein level in activated primary human T-cells (13-plex FACS / Luminex, supernatant); format: cell-based; details: human T cells; PMA/Ionomycin; Luminex; all tested concentrations
In short: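 PMA/Ionomycin- or IFN-γ-activated cells (48 h) treated with tripeptides; supernatant 13-plex FACS at 48 h and 72 h post-stimulation. Luminex run: PMA/Ionomycin plus compound at 10^−7, 10^−9, 10^−11 M; IFN-γ, IL-17, IL-10 for T cells, IFN-γ for HaCaT.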

Balb/c mice = assay: Imiquimod-induced psoriasis in mice; format: in vivo; details: i.v.
Procedure: Psoriasis in Balb/c mice is induced by daily application of topical Imiquimod for 8 days. Animal are treated with the test items (topical or systemically). On day 9 the skin phenotype is characterized using a clinical score system (0=normal mouse skin; 1=mild reddening; 2=erythema; 3=erythema, swelling; 4=erythema, swelling, scaling; 5=erythema, swelling, scaling, (bloody) lesions). Skin is analyzed histologically. Lymph nodes are analyzed by flow cytometry and RT-qPCR. mRNA expression in lesional skin is analyzed by RT-qPCR. Cytokine concentrations in the serum are assessed using the Luminex technology.

primary murine T-cells = assay: Cytokine secretion on protein level in activated primary murine T-cells (13-plex FACS / Luminex, supernatant); format: cell-based, C57BL/6 mice; details: murine T cells; PMA/Ionomycin; Luminex; all tested concentrations
In short: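 T-cells from secondary lymphatic organs of naïve C57BL/6 mice, stimulated with PMA/Ionomycin or IFN-γ; supernatant cytokines measured by 13-plex FACS 48 h and 72 h after stimulation. In another run, PMA/Ionomycin-stimulated cells received compounds at 10^−7, 10^−9 and 10^−11 M, with IFN-γ, IL-17 and IL-10 measured by Luminex.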

primary human T cells = assay: Gene expression of pro-inflammatory cytokines (RT-qPCR) in primary human T cells; format: cell-based; details: PMA/Ionomycin, 10^−7 M, 10^−9 M and 10^−11 M
Text: as §1, §2, §3

[2] = system: human keratinocyte cell line (HaCaT); assay: Cytokine secretion on protein level in activated human keratinocyte cell line HaCaT (13-plex FACS / Luminex, supernatant); format: cell-based; details: HaCaT; PMA/Ionomycin; Luminex; all tested concentrations
In short: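 Primary T-cells from peripheral blood of healthy volunteers, or HaCaT cells, were activated with PMA/Ionomycin or IFN-γ for 48 h and treated with tripeptides. Supernatants were collected 48 h and 72 h after stimulation and cytokines (IL-1, IL-2, IL-6, IL-12p70, IL-17, IFN-γ, TNF-α) were measured by 13-plex FACS.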

primary murine T cells = assay: Gene expression of pro-inflammatory cytokines (RT-qPCR) in primary murine T cells; format: cell-based, C57BL/6 mice; details: PMA/Ionomycin, 10^−7 M, 10^−9 M and 10^−11 M
Text: as §1, §2, §3

H-[dF]-Pro-[Aib]-OH [Example 15]
reduced expression: expression of pro-inflammatory cytokines IL-1β, IL-6 and TNF-α on mRNA level [1] | expression of pro-inflammatory cytokines IL-1β, IL-6 and TNF-α on mRNA level (primary human T cells) | expression of pro-inflammatory cytokines IL-1β, IL-6 and TNF-α on mRNA level (primary murine T cells)
increased: concentration of anti-inflammatory cytokine IL-10 in the supernatants (primary human T-cells) | concentration of anti-inflammatory cytokine IL-10 in the supernatants (primary murine T-cells)
reduced: concentrations of pro-inflammatory cytokines IFN-γ and IL-17 in the supernatants (primary human T-cells) | concentrations of TNF-α and IL-17 in the serum (Balb/c mice) | epidermal thickness (Balb/c mice) | mRNA expression of IFN-γ and IL-36 in lesional skin (Balb/c mice; compared to vehicle control) | clinical score (Balb/c mice; day 9) | concentrations of pro-inflammatory cytokines IFN-γ and IL-17 in the supernatants (primary murine T-cells) | concentration of pro-inflammatory cytokine IFN-γ in the supernatants [2]
